Patent publication US20220306695A1, “COMPSTATIN ANALOGUES AND THEIR MEDICAL USES” (priority 2019, published 2022)
Like-named read-outs stand apart in the source and are kept apart here. Starred links: 1 amine or outer side, 2 acyl side, 3 side chain; linkers in the order of their positions; H or OH if unused. Positions of bridges follow the written chain, without caps; N, C: chain ends. Non-standard residues stand in square brackets, D forms with d. Residues, ends and D or L forms follow the SMILES beside them. Groups on a side chain read outwards from the residue. *: point of attachment. Trp(1-Me) = Cn1cc(C[C@H](N)C(=O)O)c2ccccc21; C18 diacid = O=C(O)CCCCCCCCCCCCCCCCC(=O)*; γGlu = O=C(O)[C@H](CCC(=O)[*:2])N[*:1]; Nva = CCC[C@H](N)C(=O)O; AEEA = NCCOCCOCC(=O)O; Aoc = NCCCCCCCC(=O)O; Sar = CNCC(=O)O

Experiments:
[1] = tested on: classical complement pathway; assay: In vitro haemolysis assay (inhibition of classical complement pathway); format: cell-based, human
Description: Method The in vitro effect of test compounds was assessed by measuring their inhibitory effect of the classical complement pathway in a haemolysis assay. Briefly, test compounds and reference compounds were dissolved in DMSO and diluted in Tris/Casein Assay Buffer (10 mM Tris, 145 mM NaCl, 0.5 mM MgCl2, 0.15 mM CaCl2, and 0.1% W/V Casein, adjusted to pH 7.4) as 9-point serial dilutions in a 96 well plate. Sensitized sheep red blood cells (RBC) coated with rabbit anti-sheep erythrocyte antiserum (Complement Technology, Inc., TX, USA) were washed in Tris/Casein Assay Buffer. 50 μL from each well of diluted compound was added to a 96-well plate containing 50 μL diluted human serum (Complement Technology, Inc., TX, USA) and incubated for 15 minutes at room temperature. The serum dilution factor was optimized for every serum batch to obtain 70-90% of maximal haemolysis using the protocol. Then 50 μL sensitized sheep red blood cells were added to all wells ([…] per well). After 30 minutes of incubation at 37° C. with gentle agitation, the reaction was stopped by addition of 50 μL Tris STOP Buffer per well (10 mM EDTA, 10 mM Tris, 145 mM NaCl adjusted to pH 7.4). The RBCs were then removed by centrifugation and the resulting supernatant measured for hemolysis by absorbance at 405 nm. The response was normalized relative to a positive and negative control (vehicle) to calculate the IC50 from the concentration response curve using the 4-parameter logistic (4PL) nonlinear model for curve fitting.

[2] = Solubility test at 10 mg/mL (visual inspection and light scattering); format: physicochemical; details: for Solubility, Condition 1 Acetate pH 4: 10 mg/mL compound in 100 mM acetate pH 4; for Solubility, Condition 2 Acetate pH 5: 10 mg/mL compound in 100 mM acetate pH 5; for Solubility, Condition 3 Phosphate pH 6: 10 mg/mL compound in 100 mM phosphate pH 6; for Solubility, Condition 4 Phosphate pH 7: 10 mg/mL compound in 100 mM phosphate pH 7; for Solubility, Condition 5 Phosphate pH 7.5: 10 mg/mL compound in 100 mM phosphate pH 7.5
Description: The solubility of compounds was assessed by measuring light scattering over a pH interval from pH 4 to pH 7.5.
Compounds were dissolved in a stock solution of 20 mg/mL in H2O at pH 2.5 or pH 10.
These stock solutions were diluted 1:1 with 200 mM buffered solution to reach a final solution of 10 mg/mL compound in 100 mM buffer. The 5 investigated conditions were (1) acetate pH 4.0, (2) acetate pH 5.0, (3) phosphate pH 6.0, (4) phosphate pH 7 and (5) phosphate pH 7.5.
Visual inspection included manually checking the 96 well plate for wells that are clear or non-clear. In addition to this a picture of the 96 well plate is taken.
Absorbance was measured at four wavelengths: 280 nm, 325 nm, 340 nm and 360 nm in an UV transparent 96 well microplate in a SpectraMax 190 microplate reader (Molecular Devices).
The criteria for this was a combination of visual inspection and light scattering not exceeding 0.1 AU, where values below 0.1 AU are good in visually clear samples. […]

[3] = Table 3, human serum, sensitized sheep red blood cells, read-out: IC50[nM], in vitro analysis of inhibition of hemolysis

For `CC[C@H](C)[C@@H]1NC(=O)[C@@H](NC(=O)[C@H](Cc2ccccc2)NC(=O)[C@H](CCC(=O)O)NC(=O)[C@H](CO)NC(C)=O)CSSC[C@@H](C(=O)N(C)CC(=O)N[C@@H](CCC(=O)O)C(=O)N[C@@H](C)C(N)=O)NC(=O)[C@H](CCCCN)NC(=O)[C@H](Cc2c[nH]cn2)NC(=O)[C@H](CCC(=O)O)NC(=O)CNC(=O)[C@H](Cc2c[nH]c3ccccc23)NC(=O)[C@H](CC(=O)O)NC(=O)[C@H](CCC(N)=O)NC(=O)[C@H](Cc2cn(C)c3ccccc23)NC1=O` [Compound 86] (Ac-SEFCI[Trp(1-Me)]QDWGEHKC[Sar]EA-NH2; disulfide 4-14), which IC50 [1, 3] is on record?
Its IC50 is less than 100 nM.

Which IC50 ([1]; Table 5, different residues at position 3 of Ac-IC(1)XWQDWGEHRC(1)T-NH2, read-out: IC50, CP hemolysis) does the source give for `CCC[C@@H]1NC(=O)[C@@H](NC(=O)[C@@H](NC(C)=O)[C@@H](C)CC)CSSC[C@@H](C(=O)N[C@H](C(N)=O)[C@@H](C)O)NC(=O)[C@H](CCCNC(=N)N)NC(=O)[C@H](Cc2c[nH]cn2)NC(=O)[C@H](CCC(=O)O)NC(=O)CNC(=O)[C@H](Cc2c[nH]c3ccccc23)NC(=O)[C@H](CC(=O)O)NC(=O)[C@H](CCC(N)=O)NC(=O)[C@H](Cc2c[nH]c3ccccc23)NC1=O` [Norvaline, reference compound] (Ac-IC[Nva]WQDWGEHRCT-NH2; disulfide 2-12) here?
The IC50 was greater than 1000 nM.

For `CC[C@H](C)[C@@H]1NC(=O)[C@@H](NC(=O)[C@H](Cc2ccccc2)NC(=O)[C@H](CCC(=O)O)NC(=O)[C@H](CO)NC(C)=O)CSSC[C@@H](C(=O)N[C@H](C(=O)N[C@@H](CCC(=O)O)C(=O)NCC(=O)N[C@@H](CCC(=O)O)C(=O)NCCCCCCCC(=O)N[C@@H](CCCCNC(=O)CC[C@H](NC(=O)CNC(=O)CC[C@H](NC(=O)CCCCCCCCCCCCCCCCC(=O)O)C(=O)O)C(=O)O)C(N)=O)[C@@H](C)O)NC(=O)[C@H](CCCNC(=N)N)NC(=O)[C@H](Cc2c[nH]cn2)NC(=O)[C@H](CCC(=O)O)NC(=O)CNC(=O)[C@H](Cc2c[nH]c3ccccc23)NC(=O)[C@H](CC(=O)O)NC(=O)[C@H](CCC(N)=O)NC(=O)[C@H](Cc2cn(C)c3ccccc23)NC1=O` [Compound 136] (Ac-SEFCI[Trp(1-Me)]QDWGEHRCTEGE[Aoc]K([γGlu-Gly-γGlu-C18 diacid])-NH2; disulfide 4-14), which IC50 [1, 3] is on record?
Its IC50 is less than 100 nM.

For `CC[C@H](C)[C@@H]1NC(=O)[C@@H](NC(=O)CN(C)C(=O)[C@H](CCC(=O)O)NC(=O)[C@H](CO)NC(C)=O)CSSC[C@@H](C(=O)N(C)CC(=O)N[C@@H](CCC(=O)O)C(=O)N[C@@H](C)C(N)=O)NC(=O)[C@H](CCCNC(=N)N)NC(=O)[C@H](Cc2c[nH]cn2)NC(=O)[C@H](CCC(=O)O)NC(=O)CNC(=O)[C@H](Cc2c[nH]c3ccccc23)NC(=O)[C@H](CCC(=O)O)NC(=O)[C@H](CCC(N)=O)NC(=O)[C@H](Cc2cn(C)c3ccccc23)NC1=O` [Compound 90] (Ac-SE[Sar]CI[Trp(1-Me)]QEWGEHRC[Sar]EA-NH2; disulfide 4-14), which IC50 [1, 3] is on record?
The IC50 was less than 250 nM.

With `CC[C@H](C)[C@@H]1NC(=O)[C@@H](NC(=O)[C@H](Cc2ccccc2)NC(=O)[C@H](CCC(=O)O)NC(=O)[C@H](CO)NC(C)=O)CSSC[C@@H](C(=O)N(C)CC(=O)N[C@@H](CCC(=O)O)C(=O)NCC(=O)N[C@@H](CCC(=O)O)C(=O)NCCOCCOCC(=O)N[C@@H](CCCCNC(=O)CC[C@H](NC(=O)CNC(=O)CC[C@H](NC(=O)CCCCCCCCCCCCCCCCC(=O)O)C(=O)O)C(=O)O)C(N)=O)NC(=O)[C@H](CCCNC(=N)N)NC(=O)[C@H](Cc2c[nH]cn2)NC(=O)[C@H](CCC(=O)O)NC(=O)CNC(=O)[C@H](Cc2c[nH]c3ccccc23)NC(=O)[C@H](CC(=O)O)NC(=O)[C@H](CCC(N)=O)NC(=O)[C@H](Cc2cn(C)c3ccccc23)NC1=O` [Compound 138] (Ac-SEFCI[Trp(1-Me)]QDWGEHRC[Sar]EGE[AEEA]K([γGlu-Gly-γGlu-C18 diacid])-NH2; disulfide 4-14) as the compound, how does the IC50 [1, 3] read?
The IC50 was less than 100 nM.

Which IC50 ([1]; Table 3, cells that print μM, read-out: IC50, in vitro analysis of inhibition of hemolysis) does the source give for `CC[C@H](C)[C@H](N)C(=O)N[C@H]1CSSC[C@@H](C(=O)N[C@H](C(N)=O)[C@@H](C)O)NC(=O)[C@H](CCCN=C(N)N)NC(=O)[C@H](Cc2cnc[nH]2)NC(=O)[C@H](Cc2cnc[nH]2)NC(=O)CNC(=O)[C@H](Cc2c[nH]c3ccccc23)NC(=O)[C@H](CC(=O)O)NC(=O)[C@H](CCC(N)=O)NC(=O)[C@H](C(C)C)NC(=O)[C@H](C(C)C)NC1=O` [Compstatin] here?
Its IC50 is greater than 5000 nM.

For `CC[C@H](C)[C@@H]1NC(=O)[C@@H](NC(=O)[C@@H](NC(=O)[C@H](CCCCN)NC(=O)[C@H](CCC(=O)O)NC(=O)[C@H](CCCCN)NC(C)=O)[C@@H](C)CC)CSSC[C@@H](C(=O)N[C@H](C(=O)N[C@@H](CCC(=O)O)C(=O)N[C@@H](CCCCN)C(=O)N[C@@H](CCC(=O)O)C(N)=O)[C@@H](C)O)NC(=O)[C@H](CCCNC(=N)N)NC(=O)[C@H](Cc2c[nH]cn2)NC(=O)[C@H](CCC(=O)O)NC(=O)CNC(=O)[C@H](Cc2c[nH]c3ccccc23)NC(=O)[C@H](CC(=O)O)NC(=O)[C@H](CCC(N)=O)NC(=O)[C@H](Cc2c[nH]c3ccccc23)NC1=O` [Compound 37] (Ac-KEKICIWQDWGEHRCTEKE-NH2; disulfide 5-15), which IC50 [1, 3] is on record?
The IC50 was less than 250 nM.

Which results are given for `CC[C@H](C)[C@@H]1NC(=O)[C@@H](NC(=O)[C@H](Cc2ccc(O)cc2)NC(=O)[C@H](CCC(=O)O)NC(=O)[C@H](CO)NC(C)=O)CSSC[C@@H](C(=O)N(C)CC(=O)N[C@@H](CCC(=O)O)C(=O)NCC(=O)N[C@@H](CCC(=O)O)C(=O)N[C@@H](CCCCNC(=O)CC[C@H](NC(=O)[C@H](CCCCN)NC(=O)CC[C@H](NC(=O)CCCCCCCCCCCCCCCCC(=O)O)C(=O)O)C(=O)O)C(N)=O)NC(=O)[C@H](CCCNC(=N)N)NC(=O)[C@H](Cc2c[nH]cn2)NC(=O)[C@H](CCC(=O)O)NC(=O)CNC(=O)[C@H](Cc2c[nH]c3ccccc23)NC(=O)[C@H](CC(=O)O)NC(=O)[C@H](CCC(N)=O)NC(=O)[C@H](Cc2cn(C)c3ccccc23)NC1=O` [Compound 116] (Ac-SEYCI[Trp(1-Me)]QDWGEHRC[Sar]EGEK([γGlu-Lys-γGlu-C18 diacid])-NH2; disulfide 4-14)?
Solubility, Condition 1 Acetate pH 4 [2]: − (denotes lack of solubility at the given condition, as UV absorbance at 340 nm exceeds 0.1 AU and/or it is visibly turbid or contains particles.); Solubility, Condition 2 Acetate pH 5 [2]: − (denotes lack of solubility at the given condition, as UV absorbance at 340 nm exceeds 0.1 AU and/or it is visibly turbid or contains particles.); Solubility, Condition 3 Phosphate pH 6 [2]: + (denotes solubility at the given condition, as determined by UV absorbance being less than 0.1 AU at 340 nm and the sample being clear when manually inspected.); Solubility, Condition 4 Phosphate pH 7 [2]: + (denotes solubility at the given condition, as determined by UV absorbance being less than 0.1 AU at 340 nm and the sample being clear when manually inspected.); Solubility, Condition 5 Phosphate pH 7.5 [2]: + (denotes solubility at the given condition, as determined by UV absorbance being less than 0.1 AU at 340 nm and the sample being clear when manually inspected.)

For `CC[C@H](C)[C@@H]1NC(=O)[C@@H](NC(=O)[C@H](Cc2ccc(O)cc2)NC(=O)[C@H](C)NC(=O)[C@H](CO)NC(C)=O)CSSC[C@@H](C(=O)N(C)CC(=O)N[C@@H](CCC(=O)O)C(=O)N[C@@H](CCCCNC(=O)CC[C@H](NC(=O)CNC(=O)[C@H](CCCCN)NC(=O)CC[C@H](NC(=O)CCCCCCCCCCCCCCCCC(=O)O)C(=O)O)C(=O)O)C(N)=O)NC(=O)[C@H](CCCNC(=N)N)NC(=O)[C@H](Cc2c[nH]cn2)NC(=O)[C@H](CCC(=O)O)NC(=O)CNC(=O)[C@H](Cc2c[nH]c3ccccc23)NC(=O)[C@H](CC(=O)O)NC(=O)[C@H](CCC(N)=O)NC(=O)[C@H](Cc2cn(C)c3ccccc23)NC1=O` [Compound 105] (Ac-SAYCI[Trp(1-Me)]QDWGEHRC[Sar]EK([γGlu-Gly-Lys-γGlu-C18 diacid])-NH2; disulfide 4-14), which “Solubility, Condition 1 Acetate pH 4” value [2] is on record?
The value was “− (denotes lack of solubility at the given condition, as UV absorbance at 340 nm exceeds 0.1 AU and/or it is visibly turbid or contains particles.)”.

What about the “Solubility, Condition 2 Acetate pH 5” value [2] of the same compound?
The value was “− (denotes lack of solubility at the given condition, as UV absorbance at 340 nm exceeds 0.1 AU and/or it is visibly turbid or contains particles.)”.

What about the “Solubility, Condition 3 Phosphate pH 6” value [2] of the same compound?
Its value is “+ (denotes solubility at the given condition, as determined by UV absorbance being less than 0.1 AU at 340 nm and the sample being clear when manually inspected.)”.

And the “Solubility, Condition 4 Phosphate pH 7” value [2]?
Its value is “+ (denotes solubility at the given condition, as determined by UV absorbance being less than 0.1 AU at 340 nm and the sample being clear when manually inspected.)”.

What about the “Solubility, Condition 5 Phosphate pH 7.5” value [2] of the same compound?
The value was “+ (denotes solubility at the given condition, as determined by UV absorbance being less than 0.1 AU at 340 nm and the sample being clear when manually inspected.)”.
